Laboratory results published in PubChem BioAssay AID1963826 (Molecular Pharmacology Branch, DTP, NCI, 2024).
pIC50: −log10 of the molar value.

System: 926638-142-R-J1-PDC complex spheroid viability
Assay: Anticancer human tumor 926638-142-R-J1-PDC patient-derived endometrial carcinoma cell line growth inhibition [POLQ]
Conditions: for pIC50: curve of first compound; for viability, T/C: stronger effect = lower value
Summary of the method: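 Patient-derived tumour cells were co-cultured with HUVEC and mesenchymal stem cells as multicellular spheroids at 37 °C. They were treated with POLQ inhibitors (novobiocin, ART-558, RP6685) alone or combined with other agents. Top concentrations were at or near clinical Cmax (otherwise 10 microM; SN-38 at 1 microM), decreasing in half-log steps.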

[1] = second compound 0.0316 µM, first compound 0.0316 µM
[2] = second compound 0.0316 µM, first compound 0.1 µM
[3] = second compound 0.0316 µM, first compound 0.316 µM
[4] = second compound 0.0316 µM, first compound 1 µM
[5] = second compound 0.0316 µM, first compound 3.16 µM
[6] = second compound 0.0316 µM, first compound 10 µM
[7] = second compound 0.1 µM, first compound 0.0316 µM
[8] = second compound 0.1 µM, first compound 0.1 µM
[9] = second compound 0.1 µM, first compound 0.316 µM
[10] = second compound 0.1 µM, first compound 1 µM
[11] = second compound 0.1 µM, first compound 3.16 µM
[12] = second compound 0.1 µM, first compound 10 µM
[13] = second compound 0.316 µM, first compound 0.0316 µM
[14] = second compound 0.316 µM, first compound 0.1 µM
[15] = second compound 0.316 µM, first compound 0.316 µM
[16] = second compound 0.316 µM, first compound 1 µM
[17] = second compound 0.316 µM, first compound 3.16 µM
[18] = second compound 0.316 µM, first compound 10 µM
[19] = second compound 1 µM, first compound 0.0316 µM
[20] = second compound 1 µM, first compound 0.1 µM
[21] = second compound 1 µM, first compound 0.316 µM
[22] = second compound 1 µM, first compound 1 µM
[23] = second compound 1 µM, first compound 3.16 µM
[24] = second compound 1 µM, first compound 10 µM
[25] = second compound 3.16 µM, first compound 0.0316 µM
[26] = second compound 3.16 µM, first compound 0.1 µM
[27] = second compound 3.16 µM, first compound 0.316 µM
[28] = second compound 3.16 µM, first compound 1 µM
[29] = second compound 3.16 µM, first compound 3.16 µM
[30] = second compound 3.16 µM, first compound 10 µM
[31] = second compound 10 µM, first compound 0.0316 µM
[32] = second compound 10 µM, first compound 0.1 µM
[33] = second compound 10 µM, first compound 0.316 µM
[34] = second compound 10 µM, first compound 1 µM
[35] = second compound 10 µM, first compound 3.16 µM
[36] = second compound 10 µM, first compound 10 µM
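Further: spheroids exposed to drugs for one week before readout.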
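Wherever viability, T/C is given: percent viability relative to DMSO vehicle control wells set as 100%.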

Question: How did the pIC50 (second compound 0.0316 µM) turn out when `CC1COCCN1c1cc(C2(S(C)(=N)=O)CC2)nc(-c2ccnc3[nH]ccc23)n1` (stereo unspecified) + Nc1ccc(C#CCN(C(=O)Cc2ncc(C(F)(F)F)cc2C(F)(F)F)c2ccc(F)cc2)nn1 was run?
Answer: The pIC50 was 5.28.

Question: What about the pIC50 (second compound 0.1 µM) of the same molecule?
Answer: Its pIC50 is 5.33.

Question: What about the pIC50 (second compound 0.316 µM) of the same molecule?
Answer: The pIC50 was 5.26.

Question: And the pIC50 (second compound 1 µM)?
Answer: Its pIC50 is 5.31.

Question: And the pIC50 (second compound 3.16 µM)?
Answer: Its pIC50 is 5.41.

Question: What about the pIC50 (second compound 10 µM) of the same molecule?
Answer: Its pIC50 is 5.25.

Question: What about the viability, T/C [1] of the same molecule?
Answer: The viability, T/C was 111%.

Question: What about the viability, T/C [2] of the same molecule?
Answer: Its viability, T/C is 108%.

Question: And the viability, T/C [3]?
Answer: Its viability, T/C is 93.2%.

Question: And the viability, T/C [4]?
Answer: The viability, T/C was 82.3%.

Question: And the viability, T/C [5]?
Answer: Its viability, T/C is 71%.

Question: What about the viability, T/C [6] of the same molecule?
Answer: The viability, T/C was 28.3%.

Question: What about the viability, T/C [7] of the same molecule?
Answer: The viability, T/C was 111%.

Question: What about the viability, T/C [8] of the same molecule?
Answer: Its viability, T/C is 110%.

Question: What about the viability, T/C [9] of the same molecule?
Answer: Its viability, T/C is 97.4%.

Question: And the viability, T/C [10]?
Answer: The viability, T/C was 77.9%.

Question: What about the viability, T/C [11] of the same molecule?
Answer: Its viability, T/C is 63.6%.

Question: And the viability, T/C [12]?
Answer: The viability, T/C was 28.9%.

Question: What about the viability, T/C [13] of the same molecule?
Answer: Its viability, T/C is 99.4%.

Question: What about the viability, T/C [14] of the same molecule?
Answer: The viability, T/C was 104%.

Question: What about the viability, T/C [15] of the same molecule?
Answer: The viability, T/C was 91.9%.

Question: And the viability, T/C [16]?
Answer: The viability, T/C was 84.3%.

Question: What about the viability, T/C [17] of the same molecule?
Answer: Its viability, T/C is 65.9%.

Question: And the viability, T/C [18]?
Answer: Its viability, T/C is 32.8%.

Question: And the viability, T/C [19]?
Answer: The viability, T/C was 103%.

Question: What about the viability, T/C [20] of the same molecule?
Answer: The viability, T/C was 106%.

Question: And the viability, T/C [21]?
Answer: The viability, T/C was 90.4%.

Question: What about the viability, T/C [22] of the same molecule?
Answer: The viability, T/C was 80%.

Question: And the viability, T/C [23]?
Answer: The viability, T/C was 64.4%.

Question: What about the viability, T/C [24] of the same molecule?
Answer: Its viability, T/C is 28.9%.

Question: And the viability, T/C [25]?
Answer: The viability, T/C was 100%.

Question: What about the viability, T/C [26] of the same molecule?
Answer: Its viability, T/C is 98.9%.

Question: What about the viability, T/C [27] of the same molecule?
Answer: Its viability, T/C is 99.5%.

Question: What about the viability, T/C [28] of the same molecule?
Answer: The viability, T/C was 92.6%.

Question: And the viability, T/C [29]?
Answer: Its viability, T/C is 54.7%.

Question: What about the viability, T/C [30] of the same molecule?
Answer: Its viability, T/C is 29.7%.

Question: What about the viability, T/C [31] of the same molecule?
Answer: The viability, T/C was 98.5%.

Question: And the viability, T/C [32]?
Answer: The viability, T/C was 90.6%.

Question: And the viability, T/C [33]?
Answer: Its viability, T/C is 87.9%.

Question: And the viability, T/C [34]?
Answer: Its viability, T/C is 90.9%.

Question: And the viability, T/C [35]?
Answer: The viability, T/C was 70.2%.

Question: What about the viability, T/C [36] of the same molecule?
Answer: The viability, T/C was 29.8%.

Question: Which results are given for `COc1ccc([C@@H](O)c2cc(-c3ncnc4cc(N5CCOCC5)ccc34)c(F)cc2Cl)nn1` + Cc1cccc(N(C)C(=O)C2C(O)CCN2c2nc(C)cc(C(F)(F)F)c2C#N)c1?
Answer: pIC50 (second compound 0.0316 µM): 6.34; pIC50 (second compound 0.1 µM): 6.26; pIC50 (second compound 0.316 µM): 6.40; pIC50 (second compound 1 µM): 6.31; pIC50 (second compound 3.16 µM): 6.32; pIC50 (second compound 10 µM): 6.38; viability, T/C [1]: 76.7%; viability, T/C [2]: 93.2%; viability, T/C [3]: 58.1%; viability, T/C [4]: 26.9%; viability, T/C [5]: 12.9%; viability, T/C [6]: 7.35%; viability, T/C [7]: 99%; viability, T/C [8]: 80.7%; viability, T/C [9]: 74.2%; viability, T/C [10]: 24.3%; viability, T/C [11]: 11.5%; viability, T/C [12]: 9.24%; viability, T/C [13]: 77.3%; viability, T/C [14]: 71.1%; viability, T/C [15]: 57.2%; viability, T/C [16]: 24.6%; viability, T/C [17]: 13.3%; viability, T/C [18]: 7.22%; viability, T/C [19]: 107%; viability, T/C [20]: 89.7%; viability, T/C [21]: 65.9%; viability, T/C [22]: 26.8%; viability, T/C [23]: 14.7%; viability, T/C [24]: 9.12%; viability, T/C [25]: 83.5%; viability, T/C [26]: 88.1%; viability, T/C [27]: 57.8%; viability, T/C [28]: 32.7%; viability, T/C [29]: 12.2%; viability, T/C [30]: 9.15%; viability, T/C [31]: 76.5%; viability, T/C [32]: 94%; viability, T/C [33]: 56%; viability, T/C [34]: 24%; viability, T/C [35]: 12.9%; viability, T/C [36]: 9.62%

Question: What does the source list for `COc1cc(C2c3cc4c(cc3C(OC3OC5COC(C)OC5C(O)C3O)C3COC(=O)C23)OCO4)cc(OC)c1O` (stereo unspecified) + COC1C(OC(N)=O)C(O)C(Oc2ccc3c(O)c(NC(=O)c4ccc(O)c(CC=C(C)C)c4)c(=O)oc3c2C)OC1(C)C?
Answer: pIC50 (second compound 0.0316 µM): < 5.00; pIC50 (second compound 0.1 µM): < 5.00; pIC50 (second compound 0.316 µM): < 5.00; pIC50 (second compound 1 µM): < 5.00; pIC50 (second compound 3.16 µM): < 5.00; pIC50 (second compound 10 µM): < 5.00; viability, T/C [1]: 86.8%; viability, T/C [2]: 79%; viability, T/C [3]: 78.1%; viability, T/C [4]: 78.4%; viability, T/C [5]: 70.1%; viability, T/C [6]: 56.2%; viability, T/C [7]: 95%; viability, T/C [8]: 80.6%; viability, T/C [9]: 83.1%; viability, T/C [10]: 62.7%; viability, T/C [11]: 57.5%; viability, T/C [12]: 57.7%; viability, T/C [13]: 88.2%; viability, T/C [14]: 98.7%; viability, T/C [15]: 75.7%; viability, T/C [16]: 79.3%; viability, T/C [17]: 66%; viability, T/C [18]: 64.6%; viability, T/C [19]: 84.1%; viability, T/C [20]: 85.8%; viability, T/C [21]: 79%; viability, T/C [22]: 61.6%; viability, T/C [23]: 70.9%; viability, T/C [24]: 55.6%; viability, T/C [25]: 82%; viability, T/C [26]: 88.4%; viability, T/C [27]: 83.2%; viability, T/C [28]: 80.2%; viability, T/C [29]: 71.2%; viability, T/C [30]: 60.9%; viability, T/C [31]: 81.8%; viability, T/C [32]: 75.3%; viability, T/C [33]: 78.1%; viability, T/C [34]: 74.9%; viability, T/C [35]: 68.8%; viability, T/C [36]: 55%
